The values below come from patent publication US6191126A, “Topical use of κ opioid agonists to treat ocular pain” (Alcon Laboratories, Inc., priority 1999, dated 2001).

Test [1] concerns formalin-induced ocular pain (blinking). Briefly: formalin-induced model of ocular pain in the rat (inhibition of blinking after topical ocular dosing). The following applies: in vivo.
In test [2] the test system is mu opioid receptor (vs delta and kappa receptors). Particulars: Goodman and Gilman, 8th Edition; cited from earlier work.

As to `COC(=O)N1CCN(C(=O)Cc2ccc(Cl)c(Cl)c2)C(CN2CCCC2)C1` (racemic) [GR 89696], in test [1], the “% Inhibition (of blink count in first minute vs vehicle)” value was 98.
Consider `CN1CC[C@]23c4c5ccc(O)c4O[C@H]2[C@@H](O)C=C[C@H]3[C@H]1C5` [Morphine], for which the “% Inhibition (of blink count in first minute vs vehicle)” value in test [1] is 8. In addition, the “times greater affinity for the mu receptor than for the delta and kappa receptors” value in test [2] is given as “ten”.
